{"source": "paper PMC5770468", "about": "“Cardiac glycoside/aglycones inhibit HIV-1 gene expression by a mechanism requiring MEK1/2-ERK1/2 signaling” (Scientific Reports, 2018)", "key": {"[1]": {"test_system": "HIV-1 US RNAs", "experiment": "FISH localization of HIV-1 US RNA in HeLa rtTA-HIV(Gag-GFP) cells", "type": "cell-based", "details": "~IC90s of CSs", "text": "Figure 4 CSs suppress HIV-1 gene expression by altering viral RNA processing. […] (a,b) CSs induce oversplicing of HIV-1 RNAs (n ≥ 3, mean, s.e.m.). (a) Diagram of the primer positions (arrow heads) used for qRT-PCR. (b) Graph of the relative amount of US (black), SS (white), and MS (gray) HIV-1 RNAs in cells treated with various CSs. (c) Nuclear export of HIV-1 US RNAs in cells is altered by CSs (representative n ≥ 4). HIV-1 US RNAs were localized by FISH after treating HeLa rtTA-HIV(Gag-GFP) cells as described above but with ~IC90s of CSs. Nuclei were stained by DAPI and images captured at 630 × magnification. (d) CSs induce differential post-translational modification of SR proteins (representative n ≥ 3). SRp20, Tra2β, and tubulin were analyzed by immunoblot of HeLa rtTA-HIV-ΔMls cells treated as described above except cells of this representative blot were treated 3 d with ~IC50s of CSs. (g) Lanes were cropped and assembled from the same gel/blot per box (Supplementary Fig. S4d).\nRNA was extracted from cells, reverse transcribed, and resulting cDNAs subject to qRT-PCR quantification of HIV-1 mRNAs as previously described except reactions used iTaq™ Universal SYBR® Green Supermix (Bio-Rad, #172-5120) run on a Bio-Rad CFX384 Touch™ Real-Time PCR Detection System and analyzed with CFX Manager™[9]. NKA α1, 2, and 3 subunits were detected by published primers, amplified by iTaq using the same cycling temperature and times previously described for HIV-1 US/MS cDNAs except α1, 2, and 3 annealing temperatures were 61 °C[9],[73]. All data was normalized to β-actin as internal loading control. Primers sequences for NKA α subunits were as follows: α1 forward (5′-[…] -3′), α1 reverse (5′- […] -3′), α2 forward (5′-[…]-3′), α2 reverse (5′-[…]-3′), α3 forward (5′-[…]-3′), and α3 reverse (5′-GGGCAGACTCAGACGCATC-3′). Monitoring the subcellular localization of HIV-1 genomic RNA. HeLa rtTA-HIV(Gag-GFP) cells were seeded on cover slips, treated with drug/compound, and processed for FISH to detect HIV-1 US RNAs using Stellaris™ probes (Biosearch Technologies) as previously detailed[10],[11]."}, "[2]": {"test_system": "HeLa rtTA-HIV-ΔMls cells", "experiment": "In vitro therapeutic index (CC20/IC50) in HeLa rtTA-HIV-ΔMls cells", "type": "cell-based, human", "text": "Without median toxic dose (TD50) and half-maximal effective concentration (EC50) data available to calculate TIs (in vivo) from HIV patients treated with CSs, we determined the following TIs for each cell type treated with a CS (summarized in Supplementary Table S1): in vitro TIs from HeLa rtTA-HIV-ΔMls cells using CC20/IC50 (instead of CC50/IC50), in vitro TIs from 24ST1NLESG cells using CC50/IC50, and ex vivo TIs from HIV-infected PBMCs using CC50/IC50 (at day 14 of culture approximated from available cell viability trends for CC50s of Supplementary Fig. S13 and inferred near maximal IC50s).\nSupplementary Table S1. Comparison of the in vitro (IVTI) and ex vivo therapeutic indices (EVTIs) of CSs and their impact on the expression of essential HIV-1 proteins.\nNotes: data for CC20, CC50, and IC50s for each drug/compound were estimated from dose response curves in Figures 1-2, Supplementary Table S1, Supplementary Figures S2, S5, and S13, and Wong et al.\n\">\" means the estimate has not been accurately determined but is greater than the highest concentration […]\n\"( )\" indicates preliminary data that was not shown. aCC20 instead of CC50 was estimated from dose response curves and used for calculation of IVTIs. bCells were treated at ~IC90of a CS.\n(1 picture or pasted object on this page, not shown here)"}, "[3]": {"test_system": "HIV-1 (Gag) gene expression", "experiment": "HIV-1 (Gag) gene expression in HeLa rtTA-HIV-ΔMls cells, p24CA ELISA dose response", "type": "cell-based, HIV-1 (LAI)", "description": "Drug/compounds were tested for effects on HIV-1 gene expression using inducible Tet-ON HIV-1 cell lines [HeLa rtTA-HIV-ΔMls or rtTA-HIV(Gag-GFP)] containing a HIV-1 (LAI) provirus activatable by Dox or tetracycline transactivator (tTA)[69]. The rtTA-HIV-ΔMls provirus was modified and used as previously reported[9]–[11],[70]. The rtTA-HIV(Gag-GFP) provirus was generated by deletion of the PR and RT coding regions within pol and insertion of GFP to the 3′ of gag, creating GFP fused to the C-terminal of Gag. After 4 h of drug/compound treatment, HIV-1 gene expression was activated with Dox (2 μg/mL) or tTA (described below). Equal concentrations of DMSO were present in each experiment. After ~20 h, cells and media were harvested to monitor the effects of drug/compound treatments as described below. HIV-1 gene expression was quantified via p24^CA ELISA or monitoring Gag-GFP fluorescence in cells as described below. In parallel, cell viability of treatments were assessed by XTT assay (Sigma-Aldrich, #TOX2).\nDrug/compounds were purchased from Sigma (Digoxin, #D6003; Digitoxin, #D5878; Digoxigenin, #D9026; Digitoxigenin, #D9404; Ouabain, #O3125; Bufalin, #S961175; Cinobufagin, #C1272; and Anisomycin, #A9789) and derivatives of convallatoxin were synthesized from C. Lingwood’s lab of the Hospital for Sick Children (convallatoxin, peruvoside, RIDK-34, -36, -20, -21, -27, and -28). […] Recombinant human EGF was from Invitrogen (#PHG0314). Chemical structures were drawn in ChemSketch (ACD/Labs).\nTo monitor HIV-1 gene expression or replication, Gag release into cell culture supernatants were assayed by ELISA using a p24^CA antigen capture assay kit (AIDS & Cancer Virus Program, NCI-Frederick, Frederick, MD USA). Media harvested from HIV clinical isolates were diluted ~10 fold (or as necessary) prior to performing this assay. For analysis of HIV-1 and SR protein expression (and phosphorylation states with calf intestinal alkaline phosphatase treatments), cells were lysed and analyzed by western blot as previously outlined. Phosphatase inhibitors (e.g. 10 mM sodium fluoride, 2 mM sodium orthovanadate) were added to solutions requiring phospho protein analyses. An anti-chicken NKA antibody (α6F, #a6F–c, Developmental Studies Hybridoma Bank, The University of Iowa, contributed by Douglas M. Fambrough, The Johns Hopkins University) was used as specified to detect NKA α1- and β1-subunits across species. […] Activation of MAPKs was determined by western blot quantitation and calculation of phospho/total protein levels. […] Images were exported as TIF files for assembly, rotation, and equal brightness/contrast adjustments in ImageJ or Microsoft Powerpoint. Some lanes were cropped and rearranged from the same blot/gel as indicated. In representative gel/blot sets, samples were electrophoresed from the same experiment as controls, resolved simultaneously on identically cast gel(s), transferred to same PVDF (by either wet electrophoretic or by Bio-Rad Trans-Blot® Turbo Transfer System), and detected at same time. Marked locations of molecular weight (MW) standards are shown on the left as a reference. […] SUnSET analysis of total cellular protein synthesis. HeLa rtTA-HIV-ΔMls cells were cultured in the presence/absence of compound and pathway inhibitor (if any) and Dox induced for ~24 h as already described, then treated with puromycin (10 μg/mL, Sigma-Aldrich, #P8833) for 30 min to label nascent proteins prior to harvest. As control, 10 µM of cycloheximide (Sigma-Aldrich, #C4849) was added to some cells prior to puromycin treatment. Cells were subsequently washed, whole cell lysates prepared, and proteins quantified by western blot using an anti-puromycin antibody (EMD Millipore, #anti-12D10) as described above. Transfection of plasmid DNA into cells."}}, "note": "Read-outs that look alike come from different tables or passages of the source.", "data": [{"smiles": "C[C@]12CC[C@H](O)C[C@H]1CC[C@@H]1[C@@H]2CC[C@]2(C)[C@@H](c3ccc(=O)oc3)CC[C@]12O", "note": "[Bufalin]", "values": [{"measurement": "HIV-1 US RNA subcellular localization", "setting": "[1]", "result": "almost exclusively within the nucleus"}, {"measurement": "better in vitro TI than digoxin", "setting": "[2]", "result": 9, "unit": "fold"}, {"measurement": "IC50 lower for HIV-1 inhibition compared to digoxin", "setting": "[3]", "result": 9, "unit": "fold"}, {"measurement": "better anti-HIV-1 activity than digoxin", "setting": "[3]", "result": 9, "unit": "fold"}, {"measurement": "IC50", "setting": "[3]; Human immunodeficiency virus 1, HeLa, read-out: IC50 (nM) HeLa rtTA-HIV-ΔMls", "result": 5, "unit": "nM"}, {"measurement": "IC90", "setting": "[3]; Human immunodeficiency virus 1, HeLa, read-out: IC90, HIV-1 (Gag) gene expression", "result": 15, "unit": "nM"}, {"measurement": "IC80", "setting": "[3]; Human immunodeficiency virus 1, HeLa, read-out: ~IC80 (approximate concentration used in experiments)", "result": "~11", "unit": "nM"}, {"measurement": "IC90", "setting": "[3]; Human immunodeficiency virus 1, HeLa, read-out: ~IC90 (approximate concentration used in experiments)", "result": "~15", "unit": "nM"}]}]}
